According to the OligoGym collection:
Values joined by “and” are separate entries in the source; they are usually repeats but may differ in a detail not shown here. Identical values can stand only once. After the bases stand the sugars from the 5' end (letter, count) and the backbone: PS all phosphorothioate, else s phosphorothioate and o phosphodiester by linkage. Methylation of C is not given here. k = constrained ethyl (cEt); d = 2'-deoxy (DNA)

Molecular target: MALAT1
Conditions: ASO, A431, 0.005 µM

Sequence	target mRNA inhibition
GGGATTTGAACCCCGT (sugars k3 d10 k3, PS)	-1%
GGGTTATGCTTATTCC (sugars k3 d10 k3, PS)	28%
GGTCAGGAGAAAGTGC (sugars k3 d10 k3, PS)	18%
GGTTAAGCACTTTTAA (sugars k3 d10 k3, PS)	38%
GGTTACCAATAATTTC (sugars k3 d10 k3, PS)	93%
GGTTTCCTCAAGCTCC (sugars k3 d10 k3, PS)	34%
GTAAGAATTAAGACCA (sugars k3 d10 k3, PS)	37%
GTAAGCCCCACCCCCT (sugars k3 d10 k3, PS)	-35%
GTAGGTATAGTTTACC (sugars k3 d10 k3, PS)	39%
GTATGAGCTTCAGACC (sugars k3 d10 k3, PS)	-6%
GTCAATAGTGTAAAAC (sugars k3 d10 k3, PS)	33%
GTCAATTTATAGACCC (sugars k3 d10 k3, PS)	18%
GTCCCATAACTGATCT (sugars k3 d10 k3, PS)	35%
GTCCCTGAAGGTGTTC (sugars k3 d10 k3, PS)	23%
GTCCTTTTAGTAGCTT (sugars k3 d10 k3, PS)	50% and 72%
GTCTAGGATCCTCTAC (sugars k3 d10 k3, PS)	14%
GTCTGAGGCAAACGAA (sugars k3 d10 k3, PS)	29%
GTCTGATTATCCTGAT (sugars k3 d10 k3, PS)	33%
GTGAGAACTGCTCTAG (sugars k3 d10 k3, PS)	36%
GTGCCTGGAATTATTA (sugars k3 d10 k3, PS)	39%
GTGGCAAAATGGCGGA (sugars k3 d10 k3, PS)	21%
GTGTAAAACATTGCCT (sugars k3 d10 k3, PS)	0%
GTGTGGTTGCCAAGCC (sugars k3 d10 k3, PS)	43% and 37% and 50%

Sequence	target mRNA inhibition
GTGTTATGCCTGGTTA (sugars k3 d10 k3, PS)	2%
GTTAAAAACTTAACGC (sugars k3 d10 k3, PS)	4%
GTTAAGACCATCCCAA (sugars k3 d10 k3, PS)	19%
GTTAAGAGAAGCCCAG (sugars k3 d10 k3, PS)	20%
GTTAAGTTTTCAGCAG (sugars k3 d10 k3, PS)	17%
GTTACATGTTCCCACC (sugars k3 d10 k3, PS)	37%
GTTATGCCTGGTTAGG (sugars k3 d10 k3, PS)	16%
TAAAAAGGCTCGATGG (sugars k3 d10 k3, PS)	39%
TAAACCTGTGGTGGTC (sugars k3 d10 k3, PS)	30%
TAAACTCACTGCAAGG (sugars k3 d10 k3, PS)	14%
TAAAGAGTGTTCGCAG (sugars k3 d10 k3, PS)	51%
TAAAGTCTGATTAAGG (sugars k3 d10 k3, PS)	4%
TAAAGTGTGATAGTTC (sugars k3 d10 k3, PS)	14%
TAAATTGGTTACCAAT (sugars k3 d10 k3, PS)	25%
TAACGAAGAGATACCT (sugars k3 d10 k3, PS)	22%
TAAGACCATCCCAAAA (sugars k3 d10 k3, PS)	16%
TAAGATAGCAGCACAA (sugars k3 d10 k3, PS)	-3%
TAAGATTGTAAGCATT (sugars k3 d10 k3, PS)	23%
TAAGTTGGTAATTACT (sugars k3 d10 k3, PS)	17%
TAATACCCTTCTGTTA (sugars k3 d10 k3, PS)	19%
TAATCATACTCCAGTC (sugars k3 d10 k3, PS)	-3%
TAATGCACTGGTACAC (sugars k3 d10 k3, PS)	-22%
